Assay results: patent US12509460B2 (Skyhawk Therapeutics, Inc., priority 2019, dated 2025)
Read-outs that look alike come from different tables or passages of the source.

Assays:
[1] = system: SMN FL and SMN Δ7 in spinal muscular atrophy (SMA) patient fibroblasts (GM03813, Coriell); assay: Quantitative splicing assay (SMN), qPCR; format: cell-based, human; details: Homo sapiens, Fibroblast, 24 h, 24 h, read-out: SMN2 Splicing FL EC50
Procedure: Spinal muscular atrophy (SMA) patient fibroblasts (GM03813, Coriell) are plated in 96-well plates at 50,000 cells/well. […] Treated cells are lysed and cDNA synthesized using the Fast Advanced Cells-to-Ct kit (Thermofisher A35378) according to the manufacturer's instructions. 2 μL of each cDNA are used in qPCR reactions. […] Reactions are run in a Quant Studio 6 qPCR instrument with default settings.

[2] = Quantitative splicing assay (HTT), qPCR; format: cell-based, human; details: Homo sapiens, GM04724, 24 h, GM04724 lymphoblasts, read-out: HTT Splicing: E49-50 EC50
In short: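 Patient lymphoblasts (50,000 cells/well) dosed immediately after plating for 24 h at 2.5 uM to 0.15 nM in 0.1% DMSO. Lysed, cDNA made directly from cells, and inclusion of the intron 49 cryptic exon quantified by TaqMan qPCR.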

[3] = system: mHTT protein in GM04724 (CAG 70/20) Huntington's disease patient lymphoblast cells; assay: mHTT protein assay, 2B7-MW1 assay via Mesoscale Discovery (MSD); format: cell-based, human
In short: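 Patient lymphoblasts treated 48 h with compound from 10 μM to 0.6 nM. mHTT quantified by MSD 2B7-MW1 immunoassay, whose signal depends on polyQ expansion and HTT size. Viability measured on a replicate plate by CellTiter Glo.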

MDR1 = assay: Blood-brain-barrier (BBB) penetration potential via MDCK-MDR1 permeability assay; details: dog, MDCK-MDR1, pH 7.4, MDCK-MDR1: Efflux
Procedure: (§1) Example A13: Assessment of Blood-Brain-Barrier (BBB) Penetration Potential Via an MDCK-MDR1 Permeability Assay
(§2) The permeability of compounds is assessed for BBB penetration potential by use of an MDCK-MDR1 assay (Catalog EA203) performed by Absorption Systems, Exton PA.
(§3) Experimental Procedure: MDR1-MDCK cell monolayers are grown to confluence on collagen-coated, microporous membranes in 12-well assay plates. The permeability assay buffer is Hanks' balanced salt solution containing 10 mM HEPES and 15 mM glucose at a pH of 7.4. The buffer in the receiver chamber also contained 1% bovine serum albumin. The dosing solution concentration is 5 μM of test article in the assay buffer. Cell monolayers are dosed on the apical side (A-to-B) or basolateral side (B-to-A) and incubated at 37° C. with 5% CO2 in a humidified incubator. Samples are taken from the donor and receiver chambers at 120 minutes. Each determination is performed in duplicate. The flux of lucifer yellow is also measured post-experimentally for each monolayer to ensure no damage is inflicted to the cell monolayers during the flux period. All samples are assayed by LC-MS/MS using electrospray ionization.
(§4) The apparent permeability (Papp) and percent recovery are calculated as follows:
(§5) Analytical Method: Liquid Chromatography. Column: Waters ACQUITY UPLC BEH Phenyl 30 ×2.1 mm, 1.7 μm; M.P. Buffer. 25 mM ammonium formate buffer, pH 3.5; Aqueous Reservoir (A): 90% water, 10% buffer, Organic Reservoir (B): 90% acetonitrile, 10% buffer, Flow Rate: 0.7 mL/minute; Gradient Program:
(§6) • Total Run Time: 1.00 minute • Autosampler. 2 μL injection volume • Wash1: water/methanol/2-propanol:1/1/1; with 0.2% formic acid • Wash2: 0.1% formic acid in water • Brain Penetration • Potential Classification: A-B Papp≥3.0 and Efflux Ratio <3.0: High • A-B Papp≥3.0 and 10≥Efflux Ratio >3.0: Moderate • A-B Papp≥3.0 and Efflux Ratio≥10: Low • A-B Papp<3.0: Low

[4] = system: MDR1-MDCK cell monolayers; assay: as above
Procedure: as §1, §2, §3, §4, §5, §6

MDR1 (P-gp) = assay: as above; details: dog; for Papp A→B at 120 min, 5 μM: MDCK-MDR1, pH 7.4, MDCK-MDR1: Papp A-B; for Papp B→A at 120 min, 5 μM: MDCK-MDR1, pH 7.4, MDCK-MDR1: Papp B-A
Procedure: as §1, §2, §3, §4, §5, §6

[5] = system: SMN protein in spinal muscular atrophy (SMA) patient fibroblasts (GM03813, Coriell); assay: SMN protein assay, Mesoscale Discovery (MSD); format: cell-based, human; details: read-out: SMN2 protein EC50
In short: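 SMA patient fibroblasts (GM03813) seeded at 7000 cells/well and exposed to compound at 2.5 μM to 0.6 nM for 48 hours. Lysates assayed for SMN by MSD immunoassay, with absolute SMN amount calculated from a per-plate SMN standard curve (1 μg/ml to 19.5 pg/ml).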

[6] = SMA patient fibroblasts (GM03813)
[7] = GM04724 (CAG 70/20) Huntington's disease patient lymphoblasts
[8] = SMA patient fibroblasts (GM03813), 48 hours
[9] = SMA patient fibroblasts GM03813, 24 h, qPCR
[10] = GM04724 Huntington's disease patient lymphoblasts
[11] = SMA patient fibroblasts GM03813, 48 hours, MSD

Row | SMILES | EC50 [1, 6] | EC50 [2] | EC50 [3, 7] | efflux ratio at 120 min, 5 μM (MDR1) | MDCK-MDR1: % Recov A-B ([4]; A-B) | MDCK-MDR1: % Recov B-A ([4]; B-A) | Papp A→B at 120 min, 5 μM (MDR1 (P-gp); A-B) | Papp B→A at 120 min, 5 μM (MDR1 (P-gp); B-A) | EC50 [5, 8] | EC50 [1, 9] | EC50 ([2]; qPCR) | EC50 [3, 10] | efflux ratio at 120 min, 5 μM (MDR1; efflux ratio) | MDCK-MDR1: % Recov A-B ([4]; A-B direction) | MDCK-MDR1: % Recov B-A ([4]; B-A direction) | Papp A→B at 120 min, 5 μM (MDR1 (P-gp); A-B direction) | Papp B→A at 120 min, 5 μM (MDR1 (P-gp); B-A direction) | EC50 [5, 11]
1 | Cc1nc2cc(O)c(-c3ccc(N(C)[C@@H]4C[C@H]5CC[C@H](N5)[C@@H]4F)nn3)cc2s1 [Compound 116A, 6-(6-(((1S,2S,3R,5R)-2-fluoro-8-azabicyclo[3.2.1]octan-3-yl)(methyl)amino)pyridazin-3-yl)-2-methylbenzo[d]thiazol-5-ol] | 51 to 100 nM | 16 to 50 nM | 0.01 to 15 nM | 10 | 86% | 88% | 4.39 ×10⁻⁶ cm/s | 42.9 ×10⁻⁶ cm/s | 0.01 to 15 nM |  |  |  |  |  |  |  |  | 
2 | CN(c1ccc(-c2cc3ncccc3cc2O)nn1)[C@H]1C[C@@H]2CCC[C@@H](N2)[C@H]1F [Compound 78B, 7-(6-(((1R,2R,3S,5S)-2-fluoro-9-azabicyclo[3.3.1]nonan-3-yl)(methyl)amino)pyridazin-3-yl)quinolin-6-ol] |  |  |  |  |  |  |  |  |  | 0.01 to 15 nM | 0.01 to 15 nM | 0.01 to 15 nM | 12 | 73% | 79% | 4.03 ×10⁻⁶ cm/s | 50.3 ×10⁻⁶ cm/s | 0.01 to 15 nM
3 | CN(c1ccc(-c2cc3ncn(C)c(=O)c3cc2O)nn1)[C@H]1C[C@@H]2CC[C@@H](N2)[C@H]1F [Compound 51B, 7-(6-(((1R,2R,3S,5S)-2-fluoro-8-azabicyclo[3.2.1]octan-3-yl)(methyl)amino)pyridazin-3-yl)-6-hydroxy-3-methylquinazolin-4(3H)-one] |  |  |  |  |  |  |  |  |  | 0.01 to 15 nM | 0.01 to 15 nM | 0.01 to 15 nM | 55 | 88% | 90% | 0.91 ×10⁻⁶ cm/s | 50.3 ×10⁻⁶ cm/s | 0.01 to 15 nM
4 | CN(c1ccc(-c2cc3ccn(C)c(=O)c3cc2O)nn1)[C@@H]1C[C@H]2CC[C@H](N2)[C@@H]1F [Compound 84A, 6-(6-(((1S,2S,3R,5R)-2-fluoro-8-azabicyclo[3.2.1]octan-3-yl)(methyl)amino)pyridazin-3-yl)-7-hydroxy-2-methylisoquinolin-1(2H)-one] |  |  |  |  |  |  |  |  |  | 16 to 50 nM | 16 to 50 nM | 0.01 to 15 nM | 58 | 92% | 90% | 0.9 ×10⁻⁶ cm/s | 52 ×10⁻⁶ cm/s | 0.01 to 15 nM
5 | Cc1nc2cc(-c3ccc(N(C)[C@@H]4C[C@H]5CC[C@H](N5)[C@@H]4F)nn3)c(O)cc2c(=O)n1C [Compound 114A, 7-(6-(((1S,2S,3R,5R)-2-fluoro-8-azabicyclo[3.2.1]octan-3-yl)(methyl)amino)pyridazin-3-yl)-6-hydroxy-2,3-dimethylquinazolin-4(3H)-one] | 16 to 50 nM | 0.01 to 15 nM | 0.01 to 15 nM | 133 | 102% | 102% | 0.28 ×10⁻⁶ cm/s | 37.8 ×10⁻⁶ cm/s | 0.01 to 15 nM |  |  |  |  |  |  |  |  | 
6 | O=C(c1cc2cc(O)c(-c3ccc(N(C4CC4)[C@H]4C[C@@H]5CC[C@@H](N5)[C@H]4F)nn3)cc2o1)N1CCC1 [Compound 57B, azetidin-1-yl(6-(6-(cyclopropyl((1R,2R,3S,5S)-2-fluoro-8-azabicyclo[3.2.1]octan-3-yl)amino)pyridazin-3-yl)-5-hydroxybenzofuran-2-yl)methanone] |  |  |  |  |  |  |  |  |  | 16 to 50 nM | 16 to 50 nM | 0.01 to 15 nM | 71 | 99% | 95% | 0.69 ×10⁻⁶ cm/s | 48.5 ×10⁻⁶ cm/s | 0.01 to 15 nM
7 | CN(c1ccc(-c2cc3cnccc3cc2O)nn1)[C@H]1C[C@@H]2CCC[C@@H](N2)[C@H]1F [Compound 121B, 7-(6-(((1R,2R,3S,5S)-2-fluoro-9-azabicyclo[3.3.1]nonan-3-yl)(methyl)amino)pyridazin-3-yl)isoquinolin-6-ol] | 0.01 to 15 nM | 0.01 to 15 nM | 0.01 to 15 nM | 9 | 83% | 111% | 4.47 ×10⁻⁶ cm/s | 39.5 ×10⁻⁶ cm/s | 0.01 to 15 nM |  |  |  |  |  |  |  |  | 
